Reference: publication PMC10734298 (ACS Omega, 2023)
Read-outs that look alike come from different tables or passages of the source.

Assays:
[1] = tested on: A/Vladivostok/2/09 (H1N1); assay type: biochemical, influenza A virus; conditions: read-out: Hemagglutination Inhibition Concentration 50 (HIC50)
Toxicity in MDCK cells = conditions: dog
[2] = tested on: A/chicken/FPV/Rostock/1934 (H7N1); assay type: biochemical, influenza A virus; conditions: read-out: Hemagglutination Inhibition Concentration 50 (HIC50)
[3] = Toxicity in fertilized chicken eggs; conditions: in vivo, other: inoculated into the allantoic cavity
[4] = tested on: A/Vladivostok/2/09 (H1N1); design: species or system influenza A virus
A/Almaty/8/98(H3N2) [5] = experiment: microbe, parasite or virus in culture; assay type: cell-based, influenza A virus; conditions: for EC50: Influenza A virus, H3N2, MDCK
[6] = tested on: A/Vladivostok/2/09 (H1N1); experiment: animal or person; assay type: in vivo; conditions: Influenza A virus
[7] = tested on: A/chicken/FPV/Rostock/1934 (H7N1); design: species or system influenza A virus
[8] = tested on: A/Vladivostok/2/09 (H1N1); experiment: microbe, parasite or virus in culture; assay type: cell-based, influenza A virus; conditions: for EC50: Influenza A virus, H1N1, MDCK
[9] = tested on: A/Tern/South Africa/1/61(H5N3); experiment: microbe, parasite or virus in culture; assay type: cell-based, influenza A virus; conditions: for EC50: Influenza A virus, H5N3, MDCK
[10] = tested on: A/Tern/South Africa/1/61(H5N3); experiment: animal or person; assay type: in vivo, influenza A virus; conditions: for EC50: Influenza A virus, H5N3
[11] = tested on: A/Tern/South Africa/1/61 (H5N3); design: species or system influenza A virus
A/Almaty/8/98(H3N2) [12] = tested on: A/Almaty/8/98(H3N2); design: species or system influenza A virus
[13] = tested on: influenza virus (all tested viruses); experiment: microbe, parasite or virus in culture; assay type: cell-based, influenza A virus; conditions: unidentified influenza virus, MDCK, read-out: EC50 value
[14] = tested on: A/chicken/FPV/Rostock/1934(H7N1); assay type: cell-based, influenza A virus
A/Almaty/8/98(H3N2) [15] = assay type: biochemical, influenza A virus; conditions: read-out: Hemagglutination Inhibition Concentration 50 (HIC50)
[16] = tested on: A/chicken/FPV/Rostock/1934(H7N1); design: species or system influenza A virus; conditions: in vivo
A/Almaty/8/98(H3N2) [17] = experiment: animal or person; assay type: in vivo, influenza A virus; conditions: for EC50: Influenza A virus, H3N2
[18] = tested on: A/Tern/South Africa/1/61 (H5N3); assay type: biochemical, influenza A virus; conditions: read-out: Hemagglutination Inhibition Concentration 50 (HIC50)
[19] = target: NA of A/chicken/FPV/Rostock/1934 (H7N1) (Influenza A virus, UniProt Q64968); assay type: biochemical; conditions: read-out: Neuraminidase Inhibition Concentration 50 (NIC50)
[20] = target: NA of A/Tern/South Africa/1/61 (H5N3) (Influenza A virus, UniProt Q6XV52); experiment: biochemical
[21] = tested on: NA protein of panel of viruses; experiment: NA inhibition assay, whole virus panel; assay type: biochemical, influenza A virus; conditions: read-out: concentrations inhibiting the NA activity; range over panel viruses

NA of A/Tern/South Africa/1/61 (H5N3), sequence (Q6XV52 whole entry, looked up): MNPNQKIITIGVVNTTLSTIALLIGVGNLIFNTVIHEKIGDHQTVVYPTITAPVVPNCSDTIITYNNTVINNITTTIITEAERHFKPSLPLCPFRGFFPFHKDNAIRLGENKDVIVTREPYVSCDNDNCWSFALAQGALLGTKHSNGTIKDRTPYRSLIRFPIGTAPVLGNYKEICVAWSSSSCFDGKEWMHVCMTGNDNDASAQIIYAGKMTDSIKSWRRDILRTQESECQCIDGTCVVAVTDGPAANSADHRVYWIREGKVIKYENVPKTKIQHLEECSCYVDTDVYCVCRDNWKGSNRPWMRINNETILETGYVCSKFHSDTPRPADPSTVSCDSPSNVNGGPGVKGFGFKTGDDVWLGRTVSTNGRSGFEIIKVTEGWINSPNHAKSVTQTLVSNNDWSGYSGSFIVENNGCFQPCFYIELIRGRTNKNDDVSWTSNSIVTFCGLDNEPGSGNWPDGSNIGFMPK
NA of A/chicken/FPV/Rostock/1934 (H7N1), sequence (Q64968 whole entry, looked up): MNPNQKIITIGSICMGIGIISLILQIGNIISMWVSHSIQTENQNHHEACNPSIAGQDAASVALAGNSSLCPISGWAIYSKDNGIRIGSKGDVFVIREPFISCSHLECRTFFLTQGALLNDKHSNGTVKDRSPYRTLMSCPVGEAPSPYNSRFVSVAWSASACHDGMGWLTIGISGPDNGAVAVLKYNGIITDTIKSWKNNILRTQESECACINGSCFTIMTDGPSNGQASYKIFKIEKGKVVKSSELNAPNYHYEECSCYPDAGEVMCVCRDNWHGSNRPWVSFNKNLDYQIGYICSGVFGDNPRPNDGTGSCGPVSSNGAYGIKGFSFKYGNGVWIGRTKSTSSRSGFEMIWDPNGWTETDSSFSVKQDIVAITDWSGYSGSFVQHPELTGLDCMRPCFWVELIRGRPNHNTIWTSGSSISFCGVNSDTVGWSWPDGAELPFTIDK

Row | SMILES | IC50 [1] [µM] | CC50 at 48 h (Toxicity in MDCK cells) [µM] | IC50 [2] [µM] | CC50 at 5 days [3] [µM] | Virus Titer Reduction Factor (VTRF) [4] | EC50 (A/Almaty/8/98(H3N2) [5]) [µM] | Virus Titer Reduction Factor (VTRF) [7] | EC50 [8] [µM] | EC50 [9] [µM] | EC50 [10] [µM] | Virus Titer Reduction Factor (VTRF) [11] | Virus Titer Reduction Factor (VTRF) (A/Almaty/8/98(H3N2) [12]) | EC50 [13] [µM] | IC50 (A/Almaty/8/98(H3N2) [15]) [µM] | EC50 (A/Almaty/8/98(H3N2) [17]) [µM] | IC50 [18] [µM] | IC50 [19] [µM] | IC50 [20] [µM] | also measured
1 | COc1cc(-c2oc3cc(O)cc(O)c3c(=O)c2O)ccc1O [isorhamnetin] | 156 ± 2 | > 280 | 48.2 ± 1.7 | > 420 | 1.5 ± 0.02 | 28 ± 0.34 | 1.5 ± 0.02 | 56 ± 0.45 | 35.4 ± 0.18 | 35.4 ± 0.18 | 1.9 ± 0.02 | 1.5 ± 0.02 | 28 to 56 | 50.5 ± 0.45 | 28 ± 0.34 | 39.3 ± 0.7 | 68.2 ± 1.2 | 370 ± 7.5 | SI (A/Almaty/8/98(H3N2) [5]): >10.0; EC50 [6]: 56 ± 0.45 µM; SI [8]: >5.0; SI [9]: >7.9; SI ([10]; in vivo): >12.0; SI [14]: >8.1; SI [16]: >12.1; SI (A/Almaty/8/98(H3N2) [17]; in vivo): >15
2 | CCOC(=O)C1=C[C@@H](OC(CC)CC)[C@H](NC(C)=O)[C@@H](N)C1 [oseltamivir] | 155 ± 5.1 | > 100 | 135 ± 6.6 | > 150 | 1.0 ± 0.02 | 1.33 ± 0.028 | 1.0 ± 0.02 | 9.091 ± 0.04 | 1.65 ± 0.027 | 1.65 ± 0.027 | 1.0 ± 0.01 | 1.0 ± 0.02 | 1.3 to 9.1 | 145 ± 6.6 | 1.33 ± 0.028 | 155 ± 2 | 6.1 ± 0.2 | 20.3 ± 0.5 | IC50 [21]: 4 to 20.3 µM
